The source of these data is ChEMBL document CHEMBL1201862, “PubChem BioAssay data set” (2004).

Activity calls are given as the source filed them. Cut-off read from the data, not from the text of the source, for most assays here: actives have a measured EC50 and inactives only a lower limit.

The target of test [1] is T1, Rac GTPase-activating protein 1 (Homo sapiens, UniProt Q9H0H5).
T1 sequence (Q9H0H5 whole entry): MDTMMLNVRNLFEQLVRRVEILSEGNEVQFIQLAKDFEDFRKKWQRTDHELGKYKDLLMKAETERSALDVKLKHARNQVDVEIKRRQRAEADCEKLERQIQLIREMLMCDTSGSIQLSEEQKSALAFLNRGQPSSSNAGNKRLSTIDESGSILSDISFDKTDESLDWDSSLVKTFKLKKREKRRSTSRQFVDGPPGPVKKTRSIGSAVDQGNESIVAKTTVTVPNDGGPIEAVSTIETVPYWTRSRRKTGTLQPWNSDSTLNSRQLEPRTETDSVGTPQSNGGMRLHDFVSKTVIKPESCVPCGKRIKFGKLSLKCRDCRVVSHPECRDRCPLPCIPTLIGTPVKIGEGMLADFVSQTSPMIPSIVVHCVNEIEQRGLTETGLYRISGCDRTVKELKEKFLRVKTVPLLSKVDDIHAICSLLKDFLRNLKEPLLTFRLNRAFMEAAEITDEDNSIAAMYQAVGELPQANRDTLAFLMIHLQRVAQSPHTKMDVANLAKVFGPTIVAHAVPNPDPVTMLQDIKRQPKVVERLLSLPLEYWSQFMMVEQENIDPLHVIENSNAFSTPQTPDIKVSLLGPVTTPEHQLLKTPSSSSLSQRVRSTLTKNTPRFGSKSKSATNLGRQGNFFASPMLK
In words: MgcRacGAP GTPase-activating activity inhibitors, confirmation, biochemical, ADP Hunter fluorescence, primary and confirmatory (AID 624330). The class given is functional.

For test [2], the target named is T2, Zinc finger protein mex-5 (Caenorhabditis elegans, UniProt Q9XUB2).
T2 sequence (Q9XUB2 whole entry): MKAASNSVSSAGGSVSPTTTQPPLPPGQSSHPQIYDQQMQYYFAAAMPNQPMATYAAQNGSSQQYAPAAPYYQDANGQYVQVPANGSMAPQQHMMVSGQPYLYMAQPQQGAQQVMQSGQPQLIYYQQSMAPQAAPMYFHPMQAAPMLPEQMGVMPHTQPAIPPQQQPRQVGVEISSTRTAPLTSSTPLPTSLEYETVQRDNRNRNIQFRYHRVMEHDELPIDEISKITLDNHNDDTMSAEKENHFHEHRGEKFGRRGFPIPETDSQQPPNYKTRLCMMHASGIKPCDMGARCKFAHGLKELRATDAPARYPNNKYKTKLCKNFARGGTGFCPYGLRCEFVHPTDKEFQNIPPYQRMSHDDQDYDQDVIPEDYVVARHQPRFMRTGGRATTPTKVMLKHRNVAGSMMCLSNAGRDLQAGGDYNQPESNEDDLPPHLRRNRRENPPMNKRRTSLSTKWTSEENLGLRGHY
In words: MEX-5/TCR-2 RNA interaction inhibitors, dose response, biochemical, C. elegans, fluorescence polarization (AID 1960).

For test [3], the target named is T3, RNA-binding protein pos-1 (Caenorhabditis elegans, UniProt G5EF15).
T3 sequence (G5EF15 whole entry): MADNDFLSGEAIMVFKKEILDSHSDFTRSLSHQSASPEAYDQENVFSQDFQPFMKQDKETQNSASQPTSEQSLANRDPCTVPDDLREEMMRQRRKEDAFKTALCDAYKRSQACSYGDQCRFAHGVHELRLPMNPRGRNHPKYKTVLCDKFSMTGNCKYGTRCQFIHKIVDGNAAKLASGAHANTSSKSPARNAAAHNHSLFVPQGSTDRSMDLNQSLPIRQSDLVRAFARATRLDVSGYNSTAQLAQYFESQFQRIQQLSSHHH
In words: inhibitors of POS-1/mex-3 RNA binding, dose response, biochemical, fluorescence polarization (AID 1964).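 Note: purified POS-1 fused to maltose binding protein made in E. coli; potency of compounds blocking POS-1 binding to fluorescent RNA.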 On the technique in general: Polarisation of emitted light reports the rotation of a fluorescent probe.

Test [4] addresses T4, Corticotropin-releasing factor receptor 2/Corticotropin-releasing factor-binding protein (Homo sapiens, UniProt P24387+Q13324).
T4 sequence (Q13324 whole entry): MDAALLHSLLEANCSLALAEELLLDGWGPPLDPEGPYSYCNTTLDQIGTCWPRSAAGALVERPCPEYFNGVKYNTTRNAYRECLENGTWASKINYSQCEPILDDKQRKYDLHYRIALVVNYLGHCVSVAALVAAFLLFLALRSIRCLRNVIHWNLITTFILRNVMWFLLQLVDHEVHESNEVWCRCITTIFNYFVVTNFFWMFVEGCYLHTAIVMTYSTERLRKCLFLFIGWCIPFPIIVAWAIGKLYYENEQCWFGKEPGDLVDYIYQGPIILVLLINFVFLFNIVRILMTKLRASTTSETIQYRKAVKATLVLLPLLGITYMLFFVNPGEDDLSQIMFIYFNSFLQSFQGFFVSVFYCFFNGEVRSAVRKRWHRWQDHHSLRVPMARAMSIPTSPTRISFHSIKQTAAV
T4 sequence (P24387 whole entry): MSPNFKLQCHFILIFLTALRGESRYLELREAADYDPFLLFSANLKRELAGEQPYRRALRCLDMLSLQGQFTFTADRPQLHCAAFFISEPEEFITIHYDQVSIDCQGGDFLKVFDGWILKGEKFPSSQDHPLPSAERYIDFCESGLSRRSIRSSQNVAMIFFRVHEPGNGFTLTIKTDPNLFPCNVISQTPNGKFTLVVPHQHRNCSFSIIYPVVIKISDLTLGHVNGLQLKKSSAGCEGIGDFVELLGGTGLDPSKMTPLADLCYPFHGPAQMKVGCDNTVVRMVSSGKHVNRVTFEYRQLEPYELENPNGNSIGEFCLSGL
The test can be described thus: activators of CRF receptor 2 with binding protein – uHTS hits, confirmation (AID 602473). The class given is functional. Conditions: read-out: EC50_Mean.

Test [5] deals with T4, Corticotropin-releasing factor receptor 2/Corticotropin-releasing factor-binding protein. In words: Dose Response confirmation of uHTS hits for small molecule antagonists of the CRF-binding protein and CRF-R2 receptor complex. The class given is functional. As to conditions: read-out: IC50_Mean.
The target in test [6] is T5, Heat shock factor protein 1 (Mus musculus, UniProt P38532).
T5 sequence (P38532 whole entry): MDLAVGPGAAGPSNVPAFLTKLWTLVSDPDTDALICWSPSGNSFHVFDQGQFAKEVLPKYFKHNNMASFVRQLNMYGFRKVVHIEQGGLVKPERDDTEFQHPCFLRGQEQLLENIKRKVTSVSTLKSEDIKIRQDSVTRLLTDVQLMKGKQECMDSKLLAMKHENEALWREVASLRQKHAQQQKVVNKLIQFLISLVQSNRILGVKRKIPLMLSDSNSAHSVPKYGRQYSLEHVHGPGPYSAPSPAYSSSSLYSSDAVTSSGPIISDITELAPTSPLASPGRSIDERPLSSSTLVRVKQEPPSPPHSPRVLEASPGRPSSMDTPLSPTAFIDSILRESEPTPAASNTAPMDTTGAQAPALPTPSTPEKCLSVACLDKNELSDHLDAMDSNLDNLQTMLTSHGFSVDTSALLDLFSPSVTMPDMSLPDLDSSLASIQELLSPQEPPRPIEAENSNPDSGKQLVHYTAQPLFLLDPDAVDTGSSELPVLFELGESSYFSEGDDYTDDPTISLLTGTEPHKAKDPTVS
The test can be described thus: inhibition of MG132-induced HSE-luciferase signal, confirmation, cell-based, NIH3T3, luminescence, dose retest (AID 2382).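 Note: NIH3T3 fibroblasts with HSF1-driven luciferase reporter stressed by proteasome inhibitor MG132; luminescence from HSF1-driven luciferase expression after 8 hours of MG132 stress.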 The class given is functional.

Test [7] is described as follows: cytotoxicity toward NIH3T3 fibroblasts, dose response, counter-screen, cell-based, ATP luminescence, mouse fibroblasts (AID 2010).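 Note: cells exposed to compound for about 90 hours before reading.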 The class given is functional. (A counterscreen serves to expose hits that act by an unwanted route or on another target.)
Test [8] can be described thus: inhibitors of intracellular T. cruzi replication, confirmation, NIH3T3 host cells, beta-gal luminescence (AID 2044).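 Note: intracellular parasites grown in NIH/3T3 mouse fibroblasts as host cells; luminescent beta-galactosidase reporter signal from transgenic T. cruzi replicating inside host cells; inhibitors lower the luminescence signal.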 The class given is functional, cell-based.

With `O=C(O)CCCn1c(=S)[nH]c2c(sc3ccc([N+](=O)[O-])cc32)c1=O`, the IC50 in test [1] was 40.3 µM (active).

On to `COc1ccc(N/C=C2/C(=O)N(c3cccc(C)n3)C(=O)c3ccccc32)cc1`, for which the EC50 in test [2] and in test [3] was > 300 µM (not active) throughout.

`Cc1ccc(NC(S)=NCc2ccccn2)cc1`: the EC50 in test [4] is > 53 µM (inactive). The IC50 in test [5] was > 47.1 µM (inactive).

As to `O=C(c1cccc(Cl)c1)N1CCN(Cc2ccncc2)CC1`, in test [1], the IC50 was 99.7 µM (active).

Consider `C/C(NCCN1CCCCC1)=C1/C(=O)NC(=O)N(c2ccc(Cl)cc2)C1=O`, for which the EC50 in test [2] and in test [3] was > 300 µM (not active) throughout.

As for `COC(=O)CCCC1=CC2=CC(=O)C(C)(OC(=O)c3cnc4ccccc4n3)C(=O)C2=CO1` (stereo unspecified), the figures for the EC50 in test [2] and in test [3] were 12.3 µM (active) and 12.7 µM (active), respectively.

In the case of `NS(=O)(=O)c1ccc(NC(S)=Nc2ccc(F)c(F)c2)cc1`, in test [4], the EC50 was > 53 µM (inactive). Also, the IC50 in test [5] is > 47.1 µM (inactive).

For `COCCNCC(=O)Nc1ccc(C)c(S(=O)(=O)N2CCCCC2)c1`, in test [1], the IC50 is 132 µM (active).

Regarding `CC(=O)c1ccc2c(c1)C1C=CCC1C(c1cc3c(cc1Br)OCO3)N2` (stereo unspecified), the EC50 in test [2] and in test [3] was > 300 µM (not active) in each case.

In the case of `Cc1cc(C)cc(N2C(=O)/C(=C\c3ccc(N4CCN(C)CC4)o3)C(=O)NC2=S)c1`, the EC50 in test [2] and in test [3] was > 300 µM (inconclusive) throughout.

As for `CC(C)n1cc(CN2CCCC(CNS(=O)(=O)c3cccc4cccnc34)C2)cn1` (stereo unspecified), the EC50 in test [6] was > 195 µM (not active); in test [7] it was > 60 µM (not active); in test [8] it was 0.798 µM (active).

For `CC(C)(C)c1ccc(SCCc2cccnc2)cc1`, the EC50 in test [4] was > 53 µM (inactive). Moreover, the IC50 in test [5] was > 47.1 µM (inactive).

For `Cc1ccc(S(=O)(=O)N(CC(=O)NCc2ccco2)Cc2ccccc2F)cc1`, the EC50 in test [4] was > 53 µM (inactive). Besides, the IC50 in test [5] is > 47.1 µM (inactive).

On to `CCOC(=O)NC(O)C(=O)c1cccs1` (stereo unspecified), for which, in test [4], the EC50 was > 53 µM (inactive). Further, the IC50 in test [5] was > 47.1 µM (inactive).

`Cc1nn(C)c(Oc2ccc(Cl)cc2)c1C(=O)O`: the EC50 in test [4] was > 53 µM (inactive). Besides, in test [5], the IC50 is > 47.1 µM (inactive).

For `c1cc(CNc2ccc3c(c2)OCCO3)ccn1`, the EC50 in test [6] is 6.77 µM (active). In test [1], the IC50 was 108 µM (active).

For the compound `COCC1CCN(C(=O)CC2C(=O)NCCN2Cc2cccc(Oc3ccccc3)c2)CC1` (stereo unspecified), the EC50 in test [2] and in test [3] was > 300 µM (not active) throughout.

On to `CCN(CC)c1ccc(N/C=C2/C(=O)NC(=O)N(c3ccccc3)C2=O)cc1`, for which the EC50 in test [2] and in test [3] was > 300 µM (not active) in each case.

Turning to `CCc1ccc2nc3sc(C(=O)O)cc3cc2c1`, in test [1], the IC50 was 122 µM (active).

Regarding `COc1c(Cl)cc(Cl)cc1CNc1ccc(S(N)(=O)=O)cc1`, the EC50 in test [4] is > 53 µM (inactive). The IC50 in test [5] was > 47.1 µM (inactive).

As for `CCOC(=O)c1nc(S)n(Cc2ccccc2)c1C(=O)OCC`, the IC50 in test [1] was 49.6 µM (active).

For `COc1ccc(S(=O)(=O)N2CCCCCC2)cc1C(=O)NCCc1ccccc1`, the EC50 in test [4] was > 53 µM (inactive). The IC50 in test [5] was > 47.1 µM (inactive).

With `O=C(C1CCN(C2CCN(CC3CC=CCC3)CC2)CC1)N1CCOCC1` (stereo unspecified), the EC50 in test [4] was > 53 µM (inactive). Besides, in test [5], the IC50 was > 47.1 µM (inactive).

In the case of `O=C(O)CC1SC(Nc2ccc(O)cc2)=NC1=O` (stereo unspecified), in test [1], the IC50 is 118 µM (active).

As to `Cc1c(/C=N/NC(=O)c2cc(O)nc(O)n2)c2ccccn2c1C(=O)c1ccccc1`, the EC50 is > 300 µM (inconclusive) in test [2] and > 300 µM (not active) in test [3].

`COc1ccc(NC2CCCN(C(=O)c3ccccc3-c3ncc[nH]3)C2)cc1` (stereo unspecified): the IC50 in test [1] was 146 µM (active).

In the case of `Cc1[nH]n(CCC#N)c(=O)c1CC(=O)N1CCN(c2ccccc2)CC1`, the EC50 in test [6] is > 195 µM (not active); in test [4], > 53 µM (inactive). In addition, the IC50 in test [5] is > 47.1 µM (inactive).

For the compound `CN(C)CCO/N=C(\c1ccc(Br)cc1)c1cccnc1`, in test [1], the IC50 was 141 µM (active).

In the case of `COC(=O)c1ccc(C2Nc3ccc(/C(C)=N/NC(=O)C(OC)c4ccccc4)cc3C3C=CCC32)cc1` (stereo unspecified), the figures for the EC50 in test [2] and in test [3] were 35.2 µM (active) and > 300 µM (not active), respectively.

In the case of `CC1(C)CC(=O)C(/C=N/c2ccc(N)cc2)=C(O)C1`, in test [1], the IC50 is 46.9 µM (active).

As for `O=[N+]([O-])c1ccc(/N=C/C=C(\O)c2ccc(Br)cc2)cc1`, the EC50 in test [2] and in test [3] was > 300 µM (not active) each time.

As to `COc1cc(/C=N/n2c(C)nc3ccccc3c2=O)ccc1O`, in test [1], the IC50 is 48.5 µM (active).
